According to ChEMBL document CHEMBL3244265, “Preparation and biological actions of some symmetrically N,N-disubstituted dopamines” (J Med Chem, 1978):
Activity calls are given as the source filed them. The calls are words filed in the database; no cut-off is given here.

Assays:
Rattus norvegicus [1] = assay: Induction of hyperactivity in Sprague-Dawley rat at 3.13 to 50 ug administered into nucleus accumbens; format: functional, organism-based
Felis catus [2] = species: Felis catus; assay: Agonist activity at dopamine receptor in cat right atrium assessed as inhibition of cardiaccelerator nerve stimulation rate at 10 umol/L by cardiotachometer analysis; format: tissue-based; details: Cardiac atrium
Rattus norvegicus [3] = assay: Induction of stereotyped behaviour in intrastriatally dosed Sprague-Dawley rat at 3.13 to 50 ug administered into nucleus accumbens; format: functional, organism-based
Felis catus [4] = assay: Inhibition of 2 Hz electric current-induced cardioaccelerator nerve stimulation in cat at 10 umol/kg, iv by cardiotachometer analysis; format: functional, organism-based
Columba livia [5] = assay: Induction of pecking in im dosed pigeon; format: functional, organism-based
Felis catus [6] = assay: Effect on heart rate in iv dosed cat; format: functional, organism-based
Rattus norvegicus [7] = assay: Induction of stereotyped behaviour in Sprague-Dawley rat at 2.5 to 20 mg/kg, sc; format: functional, organism-based
Rattus norvegicus [8] = assay: Induction of hyperactivity in Sprague-Dawley rat at 3.13 to 50 ug administered into caudate putamen; format: functional, organism-based
Rattus norvegicus [9] = assay: Induction of hyperactivity in Sprague-Dawley rat at 2.5 to 20 mg/kg, sc; format: functional, organism-based
Rattus norvegicus [10] = assay: Induction of stereotyped behaviour in intrastriatally dosed Sprague-Dawley rat at 3.13 to 50 ug administered into caudate putamen; format: functional, organism-based
Felis catus [11] = assay: Inhibition of 10 Hz electric current-induced cardioaccelerator nerve stimulation in iv dosed cat by cardiotachometer analysis; format: functional, organism-based
Felis catus [12] = assay: Hypotensive activity in iv dosed cat; format: functional, organism-based
Rattus norvegicus [13] = assay: Induction of circling behaviour in Sprague-Dawley rat at 2.5 to 20 mg/kg, sc; format: functional, organism-based
Rattus norvegicus [14] = assay: Induction of stereotyped behaviour in sc dosed Sprague-Dawley rat assessed as duration of action; format: functional
Rattus norvegicus [15] = assay: Induction of circling behaviour in sc dosed Sprague-Dawley rat assessed as duration of action; format: functional
Rattus norvegicus [16] = assay: Induction of circling behaviour in sc dosed Sprague-Dawley rat in presence of 0.8 mg/kg haloperidol; format: functional, organism-based; design: dose 0.8 mg/kg
Felis catus [17] = species: Felis catus; assay: Agonist activity at dopamine receptor in cat right atrium assessed as inhibition of cardiaccelerator nerve stimulation rate by cardiotachometer analysis; format: tissue-based; details: Cardiac atrium
Rattus norvegicus [18] = assay: Induction of stereotyped behaviour in sc dosed Sprague-Dawley rat; format: functional, organism-based
Felis catus [19] = assay: Inhibition of 2 Hz electric current-induced cardioaccelerator nerve stimulation in iv dosed cat by cardiotachometer analysis; format: functional
Rattus norvegicus [20] = assay: Induction of stereotyped behaviour in sc dosed Sprague-Dawley rat assessed as onset of action; format: functional
Rattus norvegicus [21] = assay: Induction of circling behaviour in sc dosed Sprague-Dawley rat assessed as reversal of spontaneous ipsilateral to contralateral circling response; format: functional, organism-based
Rattus norvegicus [22] = assay: Induction of circling behaviour in sc dosed Sprague-Dawley rat in presence of 5 mg/kg propranolol; format: functional, organism-based; design: dose 5 mg/kg
Columba livia [23] = assay: Induction of pecking in pigeon at 1.62 umol/kg, im; format: functional, organism-based
Rattus norvegicus [24] = assay: Induction of circling behaviour in sc dosed Sprague-Dawley rat assessed as onset of action; format: functional
Rattus norvegicus [25] = assay: Induction of circling behaviour in sc dosed Sprague-Dawley rat in presence of 5 mg/kg aceperone; format: functional, organism-based; design: dose 5 mg/kg
Canis familiaris = assay: Induction of emesis in sc dosed dog; format: functional; details: Canis lupus familiaris
Felis catus [26] = assay: Inhibition of 2 Hz electric current-induced cardioaccelerator nerve stimulation in iv dosed cat by cardiotachometer analysis in presence of 0.2 mg/kg, iv haloperidol; format: functional, organism-based; design: dose 0.2 mg/kg; details: at 0.2 mg/kg

## CCCCN(CCCC)CCc1ccc(O)c(O)c1
Rattus norvegicus [1]
  Activity: inactive
Felis catus [2]
  inhibition: inactive
Rattus norvegicus [3]
  Activity: inactive
Felis catus [4]
  inhibition: inactive
Columba livia [5]
  Activity: inactive
Felis catus [6]
  Activity: inactive
Rattus norvegicus [7]
  Activity: inactive
Rattus norvegicus [8]
  Activity: inactive
Rattus norvegicus [9]
  Activity: inactive
Rattus norvegicus [10]
  Activity: inactive
Felis catus [11]
  inhibition: inactive
Felis catus [12]
  Activity: inactive
Rattus norvegicus [13]
  Activity: inactive

## CN1CCc2cccc3c2[C@H]1Cc1ccc(O)c(O)c1-3.CN1CCc2cccc3c2[C@H]1Cc1ccc(O)c(O)c1-3.Cl.Cl.O [APOMORPHINE HYDROCHLORIDE]
Rattus norvegicus [14]
  Time: 20 min
Rattus norvegicus [15]
  Time: 40 min
Rattus norvegicus [16]
  Activity: inactive
Felis catus [17]
  ED50: 43 nM
Rattus norvegicus [18]
  Activity: Dose-dependent effect
Felis catus [19]
  ED50: 0.1 µmol/kg
Rattus norvegicus [20]
  Time: <5 min
Rattus norvegicus [21]
  Activity: Active
Rattus norvegicus [22]
  Activity: Active
Columba livia [23]
  Activity: Active
Rattus norvegicus [24]
  Time: 3 min
Rattus norvegicus [25]
  Activity: Active
Canis familiaris
  ED50: 0.13 µmol/kg
Felis catus [26]
  inhibition: inactive
